Measurements from patent US11161830B2, “4-pyridone compound or salt thereof, and pharmaceutical composition and formulation including same” (priority 2017, dated 2021).
Where two headings read alike, the source gives them in different places.

Tested on: HBV (genotype CAT)
Test: Test Example 2-2: anti-HBV assay in PXB-cells (fresh human hepatocytes)
Type: cell-based
Settings: Hepatitis B virus, Hepatocyte
Experimental: Using fresh human hepatocytes (PXB-cells, manufactured by PhenixBio Co., Ltd.) collected from a PXB mouse (a chimeric mouse with human hepatocytes), the anti-HBV activity of the representative compounds was evaluated in the following procedure.
The following was used as a medium:
DMEM (manufactured by Sigma)+0.25 μg/mL insulin (manufactured by Wako)+1% penicillin/streptomycin. (manufactured by Sigma)+20 mmol/L HEPES (manufactured by Sigma)+15 μg/mL L-proline (manufactured by Sigma)+50 nmol/L dexamethasone (manufactured by Sigma)+5 ng/mL EGF (manufactured by Peprotech)+0.1 mmol/L ascorbic acid 2-phosphate (manufactured by Wako)+10% FBS+2% DMSO
Each of the test compounds) was further added to the medium to prepare a test solution containing each of the test compounds at various concentrations.
(1) PXB-cells seeded at a seeding density of 2.1×10^5 cells/cm^2 in a 96-well microliter plate were incubated in a 5% CO2 incubator at 37° C. until a day on which the cells were infected.
(2) A HBV (genotype CAT) prepared by transfecting an HBV plasmid into an HepG2 cell was suspended in the medium containing 4% PEG-8000, and added to the plate of (1) at about 30 copies/cell such that the PXB cells were infected (100 μL/well), and the plate was incubated in a 5% CO2 incubator at 37° C. for 1 day.
(3) The culture supernatant on day 1 post infection was removed and the cells were washed three times with DMEM containing 10% FBS and 1% penicillin/streptomycin. Then, the medium was added to the plate (100 μL/well) and the plate was incubated in a 5% CO2 incubator at 37° C. for 1 day.
(4) The culture supernatant on day 2 post infection was removed and the cells were washed three times with DMEM containing 10% FBS and 1% penicillin/streptomycin. Then, the medium was added to the plate (100 μL/well) and the plate was incubated in a 5% CO2 incubator at 37° C. for 5 days.
(5) The culture supernatant on day 7 post infection was removed, the medium was added to the plate (100 μL/well), and the plate was incubated in a 5% CO2 incubator at 37° C. for 5 days.
(6) The culture supernatant on day 12 post infection was removed, the medium was added to the plate (100 μL/well), and the plate was incubated in a 5% CO2 incubator at 37° C. for 5 days.
(§1) (7) The culture supernatant on day 17 post infection was removed, the test solution was added to the plate (100 μL/well), and the plate was incubated in a 5% CO2 incubator at 37° C. for 5 days. As a control without the compound added, the medium was added to the plate (100 μL/well) and the plate was incubated in a 5% CO2 incubator at 37° C. for 5 days.
as §1, with “(8)” for “(7)”, “22” for “17”
as §1, with “(9)” for “(7)”, “27” for “17”
(10) The culture supernatant on day 32 post infection was collected.
(11) The collected culture supernatant on day 32 post infection was treated with a mixture of Buffer AL (manufactured by QIAGEN) and Proteinase K (manufactured by Invitrogen). The amount of HBV-DNA in the obtained solution was absolutely quantified by a real-time PCR method. In addition, the amount of HBsAg in the culture supernatant was absolutely quantified by chemiluminescent enzyme immunoassay using Lumipulse (registered trademark) HBsAg-HQ (manufactured by Fujirebio Inc.). A relative viral load (%) with respect to a control without the compound added was each calculated. […]

Structure (SMILES): COCCN1CCN(c2nc3ccc(-n4cc(C(=O)O)c(=O)cc4-c4ccc(N5CCCC5)c(Cl)c4)cc3s2)CC1 [Example 6-5, 6-(3-chloro-4-(pyrrolidin-1-yl)phenyl)-1-(2-(4-(2-methoxyethyl)piperazine-1-yl)benzo[d]thiazol-6-yl)-4-oxo-1,4-dihydropyridine-3-carboxylic acid]
- IC50 (read-out: IC50 HBV-DNA, PXB-cells infected with HBV genotype CAT, culture supernatant on day 32 post infection): 76 nM
- IC50 (read-out: IC50 HBsAg, PXB-cells infected with HBV genotype CAT, culture supernatant on day 32 post infection): 61 nM
